Measured values reported in patent publication US5672715A, “Herbicidal substituted 3-aryl-pyrazoles” (Monsanto Company, priority 1995, dated 1997).

Columns and labels:
Type in all cases: in vivo
[1] = test system: Cocklebur; assay: post-emergence herbicide test; settings: Xanthium strumarium, post-emergence, 0.25 lb/A; read-out: % plant inhibition
In short: (§1)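 Post-emergence activity is given as percent inhibition per species. Test compounds were atomizer-sprayed at 170.3 kPa, 1870 L/Ha carrier volume and roughly 0.4% v/v emulsifier onto greenhouse-raised plants aged two to three weeks, at the stated rates.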

[2] = test system: Corn; assay: post-emergence herbicide test; settings: Zea mays, post-emergence, 0.25 lb/A; read-out: % plant inhibition
In short: as §1

[3] = test system: Soybean; assay: post-emergence herbicide test; settings: Glycine max, post-emergence, 0.25 lb/A; read-out: % plant inhibition
In short: as §1

[4] = test system: Downy Brome; assay: post-emergence herbicide test; settings: Bromus tectorum, post-emergence, 0.25 lb/A; read-out: % plant inhibition
In short: as §1

[5] = test system: Blackgrass; assay: post-emergence herbicide test; settings: Alopecurus myosuroides, post-emergence, 0.25 lb/A; read-out: % plant inhibition
In short: as §1

[6] = test system: Barnyardgrass; assay: post-emergence herbicide test; settings: Echinochloa crus-galli, post-emergence, 0.25 lb/A; read-out: % plant inhibition
In short: as §1

[7] = test system: Velvetleaf; assay: post-emergence herbicide test; settings: Abutilon theophrasti, post-emergence, 0.25 lb/A; read-out: % plant inhibition
In short: as §1

[8] = test system: Common Chickweed; assay: post-emergence herbicide test; settings: post-emergence, 0.25 lb/A; read-out: % plant inhibition
In short: as §1

[9] = test system: Birdseye Speedwell; assay: post-emergence herbicide test; settings: post-emergence, 0.25 lb/A; read-out: % plant inhibition
In short: as §1

[10] = test system: Wheat; assay: post-emergence herbicide test; settings: Triticum aestivum, post-emergence, 0.25 lb/A; read-out: % plant inhibition
In short: as §1

[11] = test system: Seedling Johnsongrass; assay: post-emergence herbicide test; settings: Sorghum halepense, post-emergence, 0.25 lb/A; read-out: % plant inhibition
In short: as §1

[12] = test system: Giant Foxtail; assay: post-emergence herbicide test; settings: Setaria faberi, post-emergence, 0.25 lb/A; read-out: % plant inhibition
In short: as §1

[13] = test system: Green Foxtail; assay: post-emergence herbicide test; settings: Setaria viridis, post-emergence, 0.25 lb/A; read-out: % plant inhibition
In short: as §1

[14] = test system: Bedstraw Catchweed; assay: post-emergence herbicide test; settings: Galium aparine, post-emergence, 0.25 lb/A; read-out: % plant inhibition
In short: as §1

[15] = test system: Morning Glory; assay: post-emergence herbicide test; settings: Ipomoea, post-emergence, 0.25 lb/A; read-out: % plant inhibition
In short: as §1

[16] = test system: Rape; assay: post-emergence herbicide test; settings: post-emergence, 0.25 lb/A; read-out: % plant inhibition
In short: as §1

[17] = test system: Wild Oats; assay: post-emergence herbicide test; settings: Avena fatua, post-emergence, 0.25 lb/A; read-out: % plant inhibition
In short: as §1

[18] = test system: Cocklebur; assay: pre-emergence herbicide test; settings: Xanthium strumarium, pre-emergence, 0.25 lb/A; read-out: % plant inhibition
In short: (§2)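 Steps: compact topsoil in pan; place seeds; level-fill with cover soil; add a known amount of compound before or after covering; keep pans in greenhouse, bottom-watering as needed; rate % inhibition at about 14 days.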

[19] = test system: Corn; assay: pre-emergence herbicide test; settings: Zea mays, pre-emergence, 0.25 lb/A; read-out: % plant inhibition
In short: as §2

[20] = test system: Soybean; assay: pre-emergence herbicide test; settings: Glycine max, pre-emergence, 0.25 lb/A; read-out: % plant inhibition
In short: as §2

[21] = test system: Downy Brome; assay: pre-emergence herbicide test; settings: Bromus tectorum, pre-emergence, 0.25 lb/A; read-out: % plant inhibition
In short: as §2

[22] = test system: Blackgrass; assay: pre-emergence herbicide test; settings: Alopecurus myosuroides, pre-emergence, 0.25 lb/A; read-out: % plant inhibition
In short: as §2

[23] = test system: Barnyardgrass; assay: pre-emergence herbicide test; settings: Echinochloa crus-galli, pre-emergence, 0.25 lb/A; read-out: % plant inhibition
In short: as §2

[24] = test system: Velvetleaf; assay: pre-emergence herbicide test; settings: Abutilon theophrasti, pre-emergence, 0.25 lb/A; read-out: % plant inhibition
In short: as §2

[25] = test system: Common Chickweed; assay: pre-emergence herbicide test; settings: pre-emergence, 0.25 lb/A; read-out: % plant inhibition
In short: as §2

[26] = test system: Birdseye Speedwell; assay: pre-emergence herbicide test; settings: pre-emergence, 0.25 lb/A; read-out: % plant inhibition
In short: as §2

[27] = test system: Wheat; assay: pre-emergence herbicide test; settings: Triticum aestivum, pre-emergence, 0.25 lb/A; read-out: % plant inhibition
In short: as §2

[28] = test system: Seedling Johnsongrass; assay: pre-emergence herbicide test; settings: Sorghum halepense, pre-emergence, 0.25 lb/A; read-out: % plant inhibition
In short: as §2

[29] = test system: Giant Foxtail; assay: pre-emergence herbicide test; settings: Setaria faberi, pre-emergence, 0.25 lb/A; read-out: % plant inhibition
In short: as §2

[30] = test system: Green Foxtail; assay: pre-emergence herbicide test; settings: Setaria viridis, pre-emergence; 0.25 lb/A; read-out: % plant inhibition
In short: as §2

[31] = test system: Bedstraw Catchweed; assay: pre-emergence herbicide test; settings: Galium aparine, pre-emergence, 0.25 lb/A; read-out: % plant inhibition
In short: as §2

[32] = test system: Morning Glory; assay: pre-emergence herbicide test; settings: Ipomoea, pre-emergence, 0.25 lb/A; read-out: % plant inhibition
In short: as §2

[33] = test system: Rape; assay: pre-emergence herbicide test; settings: pre-emergence, 0.25 lb/A; read-out: % plant inhibition
In short: as §2

[34] = test system: Wild Oats; assay: pre-emergence herbicide test; settings: Avena fatua, pre-emergence, 0.25 lb/A; read-out: % plant inhibition
In short: as §2

SMILES	inhibition at 280.212 g/ha [1] [%]	inhibition at 280.212 g/ha [2] [%]	inhibition at 280.212 g/ha [3] [%]	inhibition at 280.212 g/ha [4] [%]	inhibition at 280.212 g/ha [5] [%]	inhibition at 280.212 g/ha [6] [%]	inhibition at 280.212 g/ha [7] [%]	inhibition at 280.212 g/ha [8] [%]	inhibition at 280.212 g/ha [9] [%]	inhibition at 280.212 g/ha [10] [%]	inhibition at 280.212 g/ha [11] [%]	inhibition at 280.212 g/ha [12] [%]	inhibition at 280.212 g/ha [13] [%]	inhibition at 280.212 g/ha [14] [%]	inhibition at 280.212 g/ha [15] [%]	inhibition at 280.212 g/ha [16] [%]	inhibition at 280.212 g/ha [17] [%]	inhibition at 280.212 g/ha [18] [%]	inhibition at 280.212 g/ha [19] [%]	inhibition at 280.212 g/ha [20] [%]	other results
CCOC(=O)C=C(COC(=O)c1cc(-c2nn(C)c(C(F)(F)F)c2C)c(F)cc1Cl)OC [Compound 44]	99	15	10	35	25	90	99	95	100	15	60	65	90	100	80	45	25	0	0	0	inhibition at 280.212 g/ha [21]: 5%; inhibition at 280.212 g/ha [22]: 20%; inhibition at 280.212 g/ha [23]: 10%; inhibition at 280.212 g/ha [24]: 60%; inhibition at 280.212 g/ha [25]: 85%; inhibition at 280.212 g/ha [26]: 85%; inhibition at 280.212 g/ha [27]: 0%; inhibition at 280.212 g/ha [28]: 40%; inhibition at 280.212 g/ha [29]: 50%; inhibition at 280.212 g/ha [30]: 100%; inhibition at 280.212 g/ha [31]: 40%; inhibition at 280.212 g/ha [32]: 50%; inhibition at 280.212 g/ha [33]: 20%; inhibition at 280.212 g/ha [34]: 5%
CC(C)OC(=O)c1cc(-c2nn(C)c(C(F)(F)F)c2CF)c(F)cc1Cl [Compound 15, 2-Chloro-4-fluoro-5-[4-(fluoromethyl)-1-methyl-5-(trifluoromethyl)-1H-pyrazol-3-yl]benzoic acid, 1-methylethyl ester]	99	65	90	100	100	99	100	100	100	20	100	90	100	100	98	100	100	90	93	20	inhibition at 280.212 g/ha [21]: 100%; inhibition at 280.212 g/ha [22]: 100%; inhibition at 280.212 g/ha [23]: 100%; inhibition at 280.212 g/ha [24]: 97%; inhibition at 280.212 g/ha [25]: 100%; inhibition at 280.212 g/ha [26]: 100%; inhibition at 280.212 g/ha [27]: 0%; inhibition at 280.212 g/ha [28]: 100%; inhibition at 280.212 g/ha [29]: 100%; inhibition at 280.212 g/ha [30]: 100%; inhibition at 280.212 g/ha [31]: 98%; inhibition at 280.212 g/ha [32]: 93%; inhibition at 280.212 g/ha [33]: 60%; inhibition at 280.212 g/ha [34]: 90%
COCCOC(=O)c1cc(-c2nn(C)c(C(F)(F)F)c2C)c(F)cc1Cl [Compound 56]	99	35	90	85	60	50	100	90	100	16	95	100	98	98	80	98	80	20	0	0	inhibition at 280.212 g/ha [21]: 100%; inhibition at 280.212 g/ha [22]: 75%; inhibition at 280.212 g/ha [23]: 100%; inhibition at 280.212 g/ha [24]: 100%; inhibition at 280.212 g/ha [25]: 95%; inhibition at 280.212 g/ha [26]: 100%; inhibition at 280.212 g/ha [27]: 5%; inhibition at 280.212 g/ha [28]: 50%; inhibition at 280.212 g/ha [29]: 90%; inhibition at 280.212 g/ha [30]: 100%; inhibition at 280.212 g/ha [31]: 90%; inhibition at 280.212 g/ha [32]: 80%; inhibition at 280.212 g/ha [33]: 5%; inhibition at 280.212 g/ha [34]: 55%
